32 compounds from ChEMBL document CHEMBL3399967, “Design and discovery of 2-oxochromene derivatives as liver X receptor β-selective agonists” (Bioorg Med Chem Lett, 2015) can be followed below.

For experiment [1], the system named is HepG2. Nature of the experiment: Induction of ABCA1 mRNA expression in human HepG2 cells at 5 uM relative to control. The class given is functional.
Experiment [2] deals with HepG2. As to the kind of experiment: Induction of SREBP-1c mRNA expression in human HepG2 cells at 5 uM relative to control. It is filed as functional.
For experiment [3], the system named is HepG2. Nature of the experiment: Ratio of induction of ABCA1 mRNA expression to SREBP-1c mRNA expression in human HepG2 cells at 5 uM. It is filed as functional.
The target of experiment [4] is T1, Oxysterols receptor LXR-alpha (Homo sapiens, UniProt Q13133).
T1 sequence (Q13133 whole entry): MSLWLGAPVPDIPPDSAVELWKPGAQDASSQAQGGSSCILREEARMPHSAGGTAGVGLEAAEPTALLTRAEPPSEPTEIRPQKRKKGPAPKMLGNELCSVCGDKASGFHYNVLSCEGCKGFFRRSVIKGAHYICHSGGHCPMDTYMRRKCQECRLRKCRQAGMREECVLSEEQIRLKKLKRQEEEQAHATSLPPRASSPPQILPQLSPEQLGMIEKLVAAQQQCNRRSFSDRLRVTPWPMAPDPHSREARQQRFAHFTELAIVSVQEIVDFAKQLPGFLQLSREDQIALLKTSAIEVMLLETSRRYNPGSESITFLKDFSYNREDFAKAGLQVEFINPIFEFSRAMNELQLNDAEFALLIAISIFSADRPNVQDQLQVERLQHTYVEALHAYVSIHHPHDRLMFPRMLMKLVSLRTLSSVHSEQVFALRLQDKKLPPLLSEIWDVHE
Nature of the experiment: Agonist activity at Gal4-tagged LXRalpha (unknown origin) expressed in CHOK1 cells after 24 hrs by luciferase reporter gene assay. The class given is cell-based, CHO-K1. (Reporter assays use an easily measured gene product as a stand-in for the process of interest.)

The target in experiment [5] is T2, Oxysterols receptor LXR-beta (Homo sapiens, UniProt P55055).
T2 sequence (P55055 whole entry): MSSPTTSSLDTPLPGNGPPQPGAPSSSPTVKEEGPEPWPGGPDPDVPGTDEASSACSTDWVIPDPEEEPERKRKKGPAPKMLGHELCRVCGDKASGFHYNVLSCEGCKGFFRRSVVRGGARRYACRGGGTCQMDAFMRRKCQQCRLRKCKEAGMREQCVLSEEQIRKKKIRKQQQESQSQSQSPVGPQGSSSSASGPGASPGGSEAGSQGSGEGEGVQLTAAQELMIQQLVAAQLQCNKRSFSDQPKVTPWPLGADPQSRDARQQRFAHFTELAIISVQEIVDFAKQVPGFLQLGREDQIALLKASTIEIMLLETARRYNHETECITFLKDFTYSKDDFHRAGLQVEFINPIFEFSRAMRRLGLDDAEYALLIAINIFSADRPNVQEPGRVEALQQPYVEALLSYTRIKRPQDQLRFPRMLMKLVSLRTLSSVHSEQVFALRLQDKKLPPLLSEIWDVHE
Nature of the experiment: Agonist activity at Gal4-tagged LXRbeta (unknown origin) expressed in CHOK1 cells after 24 hrs by luciferase reporter gene assay. It is filed as cell-based, CHO-K1.

Each structure is given as a SMILES string.

As for `O=c1cc(C(F)(F)F)c2cc3c4c(c2o1)CCCN4CCC3`, the results for the “fold change (FC)” value in the experiment with HepG2 [1] and with HepG2 [2] were 9.1 and 3.9, respectively. Further, in the experiment on HepG2 [3], the Ratio stood at 2.3.

Take `CC(C)c1cc(=O)oc2c3c4c(cc12)CCCN4CCC3`: the “fold change (FC)” value is on record as 5 in the experiment on HepG2 [1] and 1.4 with HepG2 [2]. In the experiment with HepG2 [3], the Ratio is given as 3.6.

Turning to `CCN(CC)c1ccc2c(C(F)(F)F)cc(=O)oc2c1`, the “fold change (FC)” value worked out at 1.3 in the experiment on HepG2 [1] and 3.3 in the experiment on HepG2 [2]. In addition, in the experiment with HepG2 [3], the Ratio turned out to be 0.4.

For orientation: EC50 means the concentration at which the effect is half-maximal. In the case of `CCCc1cc2c(C(F)(F)F)cc(=O)oc2c(CCC)c1OCCCCN1C(=O)CSC1=O`, the EC50 in experiment [4] (read-out: EC50) came out at 2600 nM; in experiment [5] (read-out: EC50), 1400 nM.

In the case of `CCCc1cc2c(C(F)(F)F)cc(=O)oc2c(CCC)c1OCCCCN1C(=O)CN(C)C1=O`, the 50% effective concentration (EC50) in experiment [4] (read-out: EC50) was 2600 nM; in experiment [5] (read-out: EC50), 1300 nM.

For `CCCc1cc2c(C(F)(F)F)cc(=O)oc2c(CCC)c1OCCCCN1C(=O)CCC1=O`, the EC50 in experiment [5] (read-out: EC50) is 1400 nM.

Take `CCCc1cc2c(C(F)(F)F)cc(=O)oc2c(CCC)c1OCCCCN1CCOC1=O`: the EC50 in experiment [5] (read-out: EC50) worked out at 2200 nM.

With `CCCc1cc2c(C(F)(F)F)cc(=O)oc2c(CCC)c1OCCCCN1CCCC1=O`, the EC50 result in experiment [4] (cho-k1) and in experiment [5] (cho-k1) was “Not Active” each time.

In the case of `CCCc1cc2c(C(F)(F)F)cc(=O)oc2c(CCC)c1OCCCCN1C(=O)C(C)N(C)C1=O` (stereo not drawn), the results for the EC50 in experiment [4] (read-out: EC50) and in experiment [5] (read-out: EC50) were 1700 nM and 1300 nM, respectively.

As to `CCCc1cc2c(C(F)(F)F)cc(=O)oc2c(CCC)c1OCCCCN1C(=O)N(C)C(C)(C)C1=O`, the 50% effective concentration (EC50) is 11000 nM in experiment [4] (read-out: EC50) and 4700 nM in experiment [5] (read-out: EC50).

Turning to `CCCc1cc2c(C(F)(F)F)cc(=O)oc2c(CCC)c1OCCCCN1C(=O)NC(C)C1=O` (stereo not drawn), the half-maximal effective concentration (EC50) in experiment [4] (read-out: EC50) came to 1500 nM; in experiment [5] (read-out: EC50) it was 1300 nM.

Turning to `CCCc1cc2c(C(F)(F)F)cc(=O)oc2c(CCC)c1OCCCCN1C(=O)N(C)C(C)(c2ccccc2)C1=O` (stereo not drawn), the half-maximal effective concentration (EC50) result in experiment [4] (cho-k1) and in experiment [5] (cho-k1) was “Not Active” in each case.

Turning to `CCCc1cc2c(C(F)(F)F)cc(=O)oc2c(CCC)c1OCCCCN1C(=O)NC(C)(c2ccccc2)C1=O` (stereo not drawn), the results for the EC50 result in experiment [4] (cho-k1) and in experiment [5] (read-out: EC50) were “Not Active” and 5300 nM, respectively.

For `CCCc1cc2c(C(F)(F)F)cc(=O)oc2c(CCC)c1OCCCCN1C(=O)NC(C)(c2ccc(C)cc2)C1=O` (stereo not drawn), the results for the EC50 result in experiment [4] (cho-k1) and in experiment [5] (read-out: EC50) were “Not Active” and 2400 nM, respectively.

For `CCCc1cc2c(C(F)(F)F)cc(=O)oc2c(CCC)c1OCCCCN1C(=O)NC(C)(c2ccccc2OC)C1=O` (stereo not drawn), the 50% effective concentration (EC50) result in experiment [4] (cho-k1) and in experiment [5] (cho-k1) was “Not Active” in each case.

As to `CCCc1cc2c(C(F)(F)F)cc(=O)oc2c(CCC)c1OCCCCN1C(=O)NC(C)(c2cccc(OC)c2)C1=O` (stereo not drawn), the EC50 entry in experiment [4] (cho-k1) and in experiment [5] (cho-k1) was “Not Active” each time.

On to `CCCc1cc2c(C(F)(F)F)cc(=O)oc2c(CCC)c1OCCCCN1C(=O)NC(C)(c2ccc(OC)cc2)C1=O` (stereo not drawn), for which the 50% effective concentration (EC50) entry was “Not Active” in experiment [4] (cho-k1) and 960 nM in experiment [5] (read-out: EC50).

With `CCCc1cc2c(C(F)(F)F)cc(=O)oc2c(CCC)c1OCCCCN1C(=O)NC(C)(c2ccc(OC)c(OC)c2)C1=O` (stereo not drawn), the half-maximal effective concentration (EC50) entry in experiment [4] (cho-k1) and in experiment [5] (cho-k1) was “Not Active” each time.

As to `CCCc1cc2c(C(F)(F)F)cc(=O)oc2c(CCC)c1OCCCCN1C(=O)NC(C)(c2ccc3c(c2)OCO3)C1=O` (stereo not drawn), the EC50 in experiment [5] (read-out: EC50) was 1200 nM.

For `CCCc1cc2c(C(F)(F)F)cc(=O)oc2c(CCC)c1OCCCCN1C(=O)NC(C)(c2ccc(N(C)C)cc2)C1=O` (stereo not drawn), the EC50 entry in experiment [4] (cho-k1) and in experiment [5] (cho-k1) was “Not Active” throughout.

In the case of `CCCc1cc2c(C(F)(F)F)cc(=O)oc2c(CCC)c1OCCCCN1C(=O)NC(C)(c2ccc(C(F)(F)F)cc2)C1=O` (stereo not drawn), the EC50 result in experiment [4] (cho-k1) is “Not Active”.

As to `CCCc1cc2c(C(F)(F)F)cc(=O)oc2c(CCC)c1OCCCCN1C(=O)NC(C)(c2ccc([N+](=O)[O-])cc2)C1=O` (stereo not drawn), the EC50 result in experiment [4] (cho-k1) was “Not Active”; in experiment [5] (read-out: EC50), 8000 nM.

As to `CCCc1cc2c(C(F)(F)F)cc(=O)oc2c(CCC)c1OCCCCN1C(=O)NC(C)(c2ccc(C(=O)O)cc2)C1=O` (stereo not drawn), the EC50 result in experiment [4] (cho-k1) and in experiment [5] (cho-k1) was “Not Active” each time.

Regarding `CCCc1cc2c(C(F)(F)F)cc(=O)oc2c(CCC)c1OCCCCN1C(=O)NC(C)(c2ccc(O)cc2)C1=O` (stereo not drawn), the EC50 result in experiment [4] (cho-k1) and in experiment [5] (cho-k1) was “Not Active” throughout.

For the compound `CCCc1c(OCCCCN2C(=O)CN(C)C2=O)ccc2c(C(F)(F)F)cc(=O)oc12`, the EC50 in experiment [5] (read-out: EC50) was determined as 1300 nM.

On to `CCCc1c(OCCCCN2C(=O)NC(C)(c3ccccc3)C2=O)ccc2c(C(F)(F)F)cc(=O)oc12` (stereo not drawn), for which the EC50 result in experiment [4] (cho-k1) is “Not Active”; in experiment [5] (read-out: EC50) it was 2000 nM.

Consider `CCCc1c(OCCCCN2C(=O)NC(C)(c3ccc(OC)c(OC)c3)C2=O)ccc2c(C(F)(F)F)cc(=O)oc12` (stereo not drawn), for which the EC50 result in experiment [4] (cho-k1) is “Not Active”; in experiment [5] (read-out: EC50) it was 3000 nM.

Turning to `CCCc1c(OCCCCN2C(=O)NC(C)(c3ccc4c(c3)OCO4)C2=O)ccc2c(C(F)(F)F)cc(=O)oc12` (stereo not drawn), the EC50 in experiment [5] (read-out: EC50) came to 1100 nM.

With `CCCc1c(OCCCCN2C(=O)NC(C)(c3ccc(C(=O)O)cc3)C2=O)ccc2c(C(F)(F)F)cc(=O)oc12` (stereo not drawn), the 50% effective concentration (EC50) result in experiment [4] (cho-k1) and in experiment [5] (cho-k1) was “Not Active” each time.

For the compound `CCCc1c(OCCCCN2C(=O)NC(C)(c3ccc(O)cc3)C2=O)ccc2c(C(F)(F)F)cc(=O)oc12` (stereo not drawn), the EC50 entry in experiment [4] (cho-k1) is given as “Not Active”.

As to `CCCc1c(OCCCN2C(=O)CSC2=O)ccc2c(C(F)(F)F)noc12`, the EC50 in experiment [4] (read-out: EC50) came out at 1300 nM; in experiment [5] (read-out: EC50), 690 nM.

Consider `O=C(O)Cc1cccc(OCCCN(Cc2cccc(C(F)(F)F)c2Cl)CC(c2ccccc2)c2ccccc2)c1`, for which the figures for the “fold change (FC)” value in the experiment with HepG2 [1] and with HepG2 [2] were 15 and 4.9, respectively. Besides, the concentration for a half-maximal effect (EC50) in experiment [4] (read-out: EC50) worked out at 1300 nM; in experiment [5] (read-out: EC50), 420 nM. In addition, the Ratio in the experiment on HepG2 [3] came to 3.1.
